According to patent US7691887B2, “Triazole derivatives which are SMO antagonists” (Merck Sharp & Dohme Corp., priority 2007, dated 2010):

System: Hh pathway (Smo) in Shh-Light II cells
Assay: Shh-Light II Reporter Assay (firefly/Renilla luciferase)
Format: cell-based
Details: Mus musculus; for IC50: 3 uM Purmorphamine stimulation, 30 hrs
Experimental: Shh-Light II Reporter Assay
Assay designed to measure firefly and Renilla luciferase, in the same well.
Prior to assay the Shh-Light II cells (ATCC Catalog No. CRL-2795) were cultured in growth media
Day −1: seed 60,000 Shh-Light II cells in assay medium 75 uL/well, in presence of DMSO/inhibitor.
Day 0: after overnight incubation at 37° C. 10% CO2 add 3 uM of Purmorphamine (Calbiochem 540220) in water.
Day 1: After 30 hrs at 37° C. 10% CO2 of incubation develop the assay, directly to cells in growth medium. • Add 75 μl of DualGlow Luciferase Reagent (Promega, E2940) • Incubate 10 min. in the dark • Read plate at Luminometer: TopCount, by PerkinElmer • Add 75 ul of DualGlow Stop & Glow • Incubate 10 min. in the dark • Read plate at Luminometer: TopCount, by PerkinElmer. • Output is the ratio between FireFly/Renilla counts Growth Media: For Growth:
DMEM: Dulbecco's Mod Eagle Medium with 0.11 G/L Pyr, with Pyridoxine. (GIBCO Cat No: 41966-029). The medium has complemented with 10% FCS (fetal bovine serum), 1% Penicillin-Streptomycin (10 mg/ml) (GIBCO, 15140-114) and 1% L-Glutamine 200 mM (100×) (GIBCO, 3042190) and 0.4 mg/ml of G418 (Roche) and 0.15 mg/ml Zeocyne (Invitrogen R-250-01). Cells cultured at 10% CO2.
DMEM: Dulbecco's Mod Eagle Medium with 0.11 G/L Pyr, with Pyridoxine. (GIBCO Cat No: 21063-045), without Phenol Red. The medium has complemented with 2% FCS (fetal bovine serum), 1% Penicillin-Streptomycin (10 mg/ml) (GIBCO, 15140-114) and 1% L-Glutamine 200mM (100×) (GIBCO, 3042190). Cells cultured at 10% CO2. DMSO 0.25%.

Structure (SMILES) | IC50 [µM] | inhibition at 5 µM (5 μM compound) [%]
Cn1c(-c2ccccc2C(F)(F)F)nnc1C12CCC(c3nnc(C(C)(F)F)o3)(CC1)CC2 [Example 4, 2-(1,1-Difluoroethyl)-5-(4-{4-methyl-5-[2-(trifluoromethyl)phenyl]-4H-1,2,4-triazol-3-yl}bicyclo[2.2.2]oct-1-yl)-1,3,4-oxadiazole] | 9.3 | 
Cn1c(-c2ccccc2C(F)(F)F)nnc1C12CCC(c3noc(C(C)(C)F)n3)(CC1)CC2 [Example 3, 5-(1-Fluoro-1-methylethyl)-3-(4-{4-methyl-5-[2-(trifluoromethyl)phenyl]-4H-1,2,4-triazol-3-yl}bicyclo[2.2.2]oct-1-yl)-1,2,4-oxadiazole] | 4.2 | 
Cn1c(-c2ccccc2C(F)(F)F)nnc1C12CCC(c3noc(C(C)(F)F)n3)(CC1)CC2 [Example 1, 5-(1,1-Difluoroethyl)-3-(4-{4-methyl-5-[2-(trifluoromethyl)phenyl]-4H-1,2,4-triazol-3-yl}bicyclo[2.2.2]oct-1-yl)-1,2,4-oxadiazole] |  | 35
Cn1c(-c2ccccc2C(F)(F)F)nnc1C12CCC(c3nnc(C4CC(F)(F)C4)o3)(CC1)CC2 [Example 5, 2-(3,3-Difluorocyclobutyl)-5-(4-{4-methyl-5-[2-(trifluoromethyl)phenyl]-4H-1,2,4-triazol-3-yl}bicyclo[2.2.2]oct-1-yl)-1,3,4-oxadiazole] | 2 | 
Cn1c(-c2ccccc2C(F)(F)F)nnc1C12CCC(c3noc(C4CC(F)(F)C4)n3)(CC1)CC2 [Example 2, 5-(3,3-Difluorocyclobutyl)-3-(4-{4-methyl-5-[2-(trifluoromethyl)phenyl]-4H-1,2,4-triazol-3-yl}bicyclo[2.2.2]oct-1-yl)-1,2,4-oxadiazole] | 1.4 | 
